According to US20050250819A1 (priority 2004, published 2005):

test system: Type III protein secretion of the chimeric SopE‘-’Bla polypeptide (SPI1 type III protein secretion system); test: Primary assay: Type III protein secretion of the chimeric SopE'-'Bla polypeptide by Salmonella enterica; assay type: cell-based; conditions: read-out: SopE IC50(μM)
From the text: Primary assay: Type III protein secretion of the chimeric SopE‘-’Bla polypeptide by Salmonella enterica. This procedure is a cell-based assay that measures the type III-dependent secretion by Salmonella enterica of a plasmid-encoded chimeric polypeptide whose synthesis can be regulated, and which is endowed with an enzymatic activity that can be monitored colorimetrically by hydrolysis of a substrate that is unable to penetrate into the bacterial cytoplasm within the time constraints of the reaction. Thus, the colormetric reaction is not influenced by SopE‘-’Bla polypeptide in the bacterial cytplasm. Instead, it effectively measures the amount of polypeptide that has been secreted from the S. enterica cytoplasm to the extracellular medium via type III system protein secretion.
The SopE‘-’Bla recombinant polypeptide consists of two functionally distinct domains spliced together. The N-terminus domain is encoded by a polynucleotide region specifying the signal for type III secretion of the SopE polypeptide of S. enterica, an effector of the SPI1 type III protein secretion system. The C-terminus domain of SopE‘-’Bla consists of a 263 amino acid peptide sequence that corresponds to the TEM-1 β-lactamase expressed by plasmid pBR322 but without its N-terminal signal sequence. The TEM-1 β-lactamase part of the SopE‘-’Bla chimeric polypeptide is used as a reporter enzyme. It is capable of hydrolyzing nitrocefin resulting in a product whose accumulation can be monitored by colorimetric detection. The secretion of the SopE‘-’Bla chimeric polypeptide from the cytoplasm to the extracellular medium is dependent on type III protein secretion.
For this procedure, cells grown under conditions known to favor a functional SPI1 secretion system are induced for expression of the SopE‘-’Bla protein and grown either in the presence or in the absence of putative inhibitors for determined time. Nitrocefin is then added to the various cultures and its hydrolysis are used for quantitation. An inhibitor of Type III protein secretion is generally a compound that reduces the signal of the enzymatic reaction by decreasing the amount of SopE‘-’Bla secreted into the extracellular medium.

Q: Which IC50 does the source give for O=C(N[C@@H](CSCc1ccccc1)C(=O)O)C(=Cc1ccc2ccccc2c1)NC(=O)c1ccc(I)cc1 [Compound 46, (R)-3-Benzylsulfanyl-2-[2-(4-iodobenzoylamino)-3-naphthalen-2-yl-acryloylamino]propionic acid] here?
A: 28.6 µM

Q: O=C(NN(Cc1cccc(C(F)(F)F)c1)C(=O)NC(Cc1ccc(Cl)cc1)C(=O)O)c1ccc(-c2ccccc2)cc1 (stereo not drawn) [Compound 51, 4-Biphenylcarboxylic acid-N′-[(3-trifluoromethylphenyl)methyl]-N′-[[[2-(4-chlorophenyl)-1-carboxyethyl]amino]carbonyl]hydrazide] was tested. Which IC50 did it give?
A: 8 µM

Q: O=C(NN(Cc1ccc(Cl)c(C(F)(F)F)c1)C(=O)NC(Cc1ccc(Cl)cc1)C(=O)O)c1ccc(-c2ccccc2)cc1 (stereo not drawn) [Compound 52, 4-Biphenylcarboxylic acid-N′-[(4-chloro-3-trifluoromethylphenyl)methyl]-N′-[[[2-(4-chlorophenyl)-1-carboxyethyl]amino]carbonyl]hydrazide] was tested. Which IC50 did it give?
A: 3.1 µM

Q: How did the IC50 turn out when O=C(N[C@@H](CSCc1ccccc1)C(=O)O)/C(=C\c1ccc(OCc2ccncc2)cc1)NC(=O)c1ccc(C(F)(F)F)cc1 [Compound 59, (R)-3-Benzylsulfanyl-2-[3-[4-(pyridin-4-yl-methoxy)phenyl]-2-(4-trifluoromethyl-benzoylamino)acryloylamino]propionic acid] was run?
A: 73.4 µM

Q: O=C(NC(Cc1ccc(Br)cc1)C(=O)O)/C(=C\c1cccc(C(F)(F)F)c1)NC(=O)c1ccc(-c2ccccc2)cc1 (stereo not drawn) [Compound 60, 2-[2-[(Biphenyl-4-carbonyl)amino]-3-(3-trifluoromethylphenyl)acryloylamino]-3-(4-bromophenyl)propionic acid] was tested. Which IC50 did it give?
A: 9.2 µM

Q: With O=C(NC(=Cc1cccc(C(F)(F)F)c1)C(=O)N1C(c2ccc(F)cc2)SC[C@H]1C(=O)O)c1ccc(-c2ccccc2)cc1 (stereo partly drawn) [Compound 61, (4R)-3-[2-[(Biphenyl-4-carbonyl)amino]-3-(3-trifluoromethylphenyl)acryloyl]-2-(4-fluorophenyl)thiazolidine-4-carboxylic acid] as the molecule, how does the IC50 read?
A: 3.7 µM

Q: How did the IC50 turn out when O=C(N[C@H](CSCc1ccccc1)C(=O)O)/C(=C\c1ccc(C(F)(F)F)cc1)NC(=O)c1cc2ccccc2s1 [Compound 64, (S)-2-[2-[(Benzo[b]thiophene-2-carbonyl)amino]-3-(4-trifluoromethylphenyl)-acryloylamino]-3-benzylsulfanylpropionic acid] was run?
A: 49.4 µM

Q: For O=C(N[C@H](COCc1ccccc1)C(=O)O)/C(=C\c1ccc(C(F)(F)F)cc1)NC(=O)c1cc2ccccc2s1 [Compound 65, (R)-2-[2-[(Benzo[b]thiophene-2-carbonyl)amino]-3-(4-trifluoromethylphenyl)-acryloylamino]-3-benzyloxypropionic acid], which IC50 is on record?
A: 88 µM

Q: O=C(N[C@@H](Cc1ccc(Cl)cc1)C(=O)O)/C(=C\c1ccc(Cl)c(Cl)c1)NC(=O)c1cc2ccccc2s1 [Compound 66, (S)-2-[2-[(Benzo[b]thiophene-2-carbonyl)amino]-3-(3,4-dichlorophenyl)-acryloylamino]-3-(4-chlorophenyl)propionic acid] was tested. Which IC50 did it give?
A: 19 µM

Q: Which IC50 does the source give for O=C(N[C@H](CSCc1ccccc1)C(=O)O)/C(=C\c1ccc(Cl)c(Cl)c1)NC(=O)c1cc2ccccc2s1 [Compound 67, (S)-2-[2-[(Benzo[b]thiophene-2-carbonyl)amino]-3-(3,4-dichlorophenyl)-acryloylamino]-3-benzylsulfanylpropionic acid] here?
A: 27 µM

Q: Which IC50 does the source give for O=C(N[C@H](COCc1ccccc1)C(=O)O)/C(=C\c1ccc(Cl)c(Cl)c1)NC(=O)c1cc2ccccc2s1 [Compound 68, (R)-2-[2-[(Benzo[b]thiophene-2-carbonyl)amino]-3-(3,4-dichlorophenyl)-acryloylamino]-3-benzyloxypropionic acid] here?
A: 52 µM

Q: With O=C(N[C@@H](Cc1ccc(Cl)cc1)C(=O)O)/C(=C\c1cccc(C(F)(F)F)c1)NC(=O)c1cc2ccccc2o1 [Compound 69, (S)-2-[2-[(Benzofuran-2-carbonyl)amino]-3-(3-trifluoromethylphenyl)acryloylamino]-3-(4-chlorophenyl)propionic acid] as the molecule, how does the IC50 read?
A: 28.5 µM

Q: Which IC50 does the source give for Cn1cc(C(=O)N/C(=C/c2cccc(C(F)(F)F)c2)C(=O)N[C@H](COCc2ccccc2)C(=O)O)c2ccccc21 [Compound 70, (R)-3-Benzyloxy-2-[2-[(1-methyl-1H-indole-3-carbonyl)amino]-3-(3-trifluoromethylphenyl)acryloylamino]propionic acid] here?
A: 86.3 µM

Q: How did the IC50 turn out when O=C(NC(Cc1ccc(F)cc1)C(=O)O)/C(=C\c1cccc(C(F)(F)F)c1)NC(=O)c1ccc(-c2ccccc2)cc1 (stereo not drawn) [Compound 71, 2-[2-[(Biphenyl-4-carbonyl)amino]-3-(3-trifluoromethylphenyl)acryloylamino]-3-(4-fluorophenyl)propionic acid] was run?
A: 34.2 µM

Q: Which IC50 does the source give for O=C(NC(Cc1ccc(C(F)(F)F)cc1)C(=O)O)/C(=C\c1cccc(C(F)(F)F)c1)NC(=O)c1ccc(-c2ccccc2)cc1 (stereo not drawn) [Compound 72, 2-[2-[(Biphenyl-4-carbonyl)amino)-3-(3-trifluoromethylphenyl)acryloylamino]-3-(4-trifluoromethylphenyl)propionic acid] here?
A: 12.8 µM

Q: How did the IC50 turn out when O=C(N[C@H](COCc1ccccc1)C(=O)O)/C(=C\c1ccc(Cl)c(Cl)c1)NC(=O)C1CCN(c2nccc(C(F)(F)F)n2)CC1 [Compound 73, (R)-3-Benzyloxy-2-(3-(3,4-dichlorophenyl)-2-{[1-(4-trifluoromethylpyrimidin-2-yl)-piperidine-4-carbonyl]amino}acryloylamino)propionic acid] was run?
A: 12.8 µM

Q: Which IC50 does the source give for O=C(N[C@@H](Cc1ccc(Cl)cc1)C(=O)O)/C(=C\c1cccc(C(F)(F)F)c1)NC(=O)C1CCN(c2nccc(C(F)(F)F)n2)CC1 [Compound 79, (S)-3-(4-Chlorophenyl)-2-(3-(3-trifluoromethylphenyl)-2-{[1-(4-trifluoromethyl-pyrimidin-2-yl)piperidine-4-carbonyl]amino}acryloylamino)propionic acid] here?
A: 25.9 µM

Q: Which IC50 does the source give for O=C(N[C@H](COCc1ccccc1)C(=O)O)/C(=C\c1ccc(Br)cc1)NC(=O)C1CCN(c2nccc(C(F)(F)F)n2)CC1 [Compound 80, (R)-3-Benzyloxy-2-(3-(4-bromophenyl)-2-{[1-(4-trifluoromethylpyrimidin-2-yl)-piperidine-4-carbonyl]amino}acryloylamino)propionic acid] here?
A: 38.5 µM

Q: O=C(N[C@@H](CSCc1ccccc1)C(=O)O)/C(=C\c1ccc(Br)cc1)NC(=O)C1CCN(c2nccc(C(F)(F)F)n2)CC1 [Compound 81, (R)-3-Benzylsulfanyl-2-(3-(4-bromophenyl)-2-{[1-(4-trifluoromethylpyrimidin-2-yl)piperidine-4-carbonyl]amino}acryloylamino)propionic acid] was tested. Which IC50 did it give?
A: 58.1 µM

Q: O=C(N[C@@H](Cc1ccc(Cl)cc1)C(=O)O)/C(=C\c1ccc(Br)cc1)NC(=O)C1CCN(c2nccc(C(F)(F)F)n2)CC1 [Compound 82, (S)-2-(3-(4-Bromophenyl)-2-{[1-(4-trifluoromethylpyrimidin-2-yl)piperidine-4-carbonyl]amino}acryloylamino)-3-(4-chlorophenyl)propionic acid] was tested. Which IC50 did it give?
A: 27.8 µM

Q: O=C(N[C@@H](Cc1ccc(Cl)cc1)C(=O)O)/C(=C\c1ccc(OC(F)(F)F)cc1)NC(=O)C1CCN(c2nccc(C(F)(F)F)n2)CC1 [Compound 85, (S)-3-(4-Chlorophenyl)-2-(3-(4-trifluoromethoxyphenyl)-2-{[1-(4-trifluoromethyl-pyrimidin-2-yl)piperidine-4-carbonyl]amino}acryloylamino)propionic acid] was tested. Which IC50 did it give?
A: 35.2 µM
